In patent US4069316A, “Method for producing antibiotic T-42082 and antibiotic T-42082” (Takeda Chemical Industries, Ltd., priority 1976, dated 1978):

Tested on: Eimeria tenella
Assay: Experimental 3: anticoccidial effect in chicks inoculated with drug-resistant wild strain
Procedure: The following experiment was carried out with a wild strain resistant to the conventional anticoccidial drugs.
The oocysts, predominantly of Eimeria tenella, obtained from a wild strain were used to inoculate chicks at a rate of 10×10^5 sporulated oocysts per bird. […] The battery test procedure was repeated.

SMILES: NC(=NN=Cc1ccc(Cl)cc1)NN=Cc1ccc(Cl)cc1 [Lobenidine]
- At end of experiment/At start of experiment (No. of birds) (33.0 ppm): 3/3
- Relative Weight gain (33.0 ppm): 26.4%
- The pathological change of caecum: birds scored + (33.0 ppm): 0
- The pathological change of caecum: birds scored ++ (33.0 ppm): 0
- The pathological change of caecum: birds scored +++ (33.0 ppm): 0
- The pathological change of caecum: birds scored ++++ (33.0 ppm): 3
- The pathological change of caecum: birds scored - (33.0 ppm): 0
- No. of blood drops/per bird (33.0 ppm, day 4): 2.3
- No. of blood drops/per bird (33.0 ppm, day 5): 9.3
- No. of deaths (33.0 ppm, day 5): 0
- No. of blood drops/per bird (33.0 ppm, day 6): 9.3
- No. of deaths (33.0 ppm, day 6): 0
- No. of blood drops/per bird (33.0 ppm, day 7): 6.0
- No. of deaths (33.0 ppm, day 7): 0
- No. of deaths (33.0 ppm, day 8): 0
- At end of experiment/At start of experiment (No. of birds) (66.0 ppm): 3/3
- Relative Weight gain (66.0 ppm): 53.4%
- The pathological change of caecum: birds scored + (66.0 ppm): 0
- The pathological change of caecum: birds scored ++ (66.0 ppm): 0
- The pathological change of caecum: birds scored +++ (66.0 ppm): 0
- The pathological change of caecum: birds scored ++++ (66.0 ppm): 3
- The pathological change of caecum: birds scored - (66.0 ppm): 0
- No. of blood drops/per bird (66.0 ppm, day 4): 0.6
- No. of blood drops/per bird (66.0 ppm, day 5): 8.0
- No. of deaths (66.0 ppm, day 5): 0
- No. of blood drops/per bird (66.0 ppm, day 6): 10.0
- No. of deaths (66.0 ppm, day 6): 0
- No. of blood drops/per bird (66.0 ppm, day 7): 4.6
- No. of deaths (66.0 ppm, day 7): 0
- No. of deaths (66.0 ppm, day 8): 0
